Laboratory results reported in patent US20080145358A1, “Method for Determining Responsiveness to Chk1 Inhibitors” (ASTRAZENECA AB, priority 2005, published 2008).

How the values were obtained:
phospho-CHK [1] = assay: Western blot of phospho-CHK after DNA damaging agents in SW620 and or HT29 cells; format: cell-based; conditions: titration of DNA damaging agent, 8 hour incubation
Procedure: Cell were then treated with a titration of DNA damaging agents (SN-38 (CQ International, China), doxorubicin (Sigma-Aldrich, MO) or gemcitabine (CQ International, China)). Cells were then harvested after an 8 hour incubation with DNA damaging agents in Onyx lysis buffer with protease and phosphatase inhibitors (20 mM Tris, 137 mM Na Cl, […], 1% Triton X, 10% glycerol, 1.5 mM MgCl2, 1:100 dilution of Calbiochem Phophatase Inhibitor Cocktail set II, 10 mM β-glycerophosphate, 1 mM DTT, 7 μg/ml PMSF, 20KIU/ml aprotinin, 1 mM Pefabloc, 0.1 mg/ml leupeptin). Protein lysates were then generated, protein concentration determined and equal protein loaded and analyzed by Western blot analysis using a 1:100 dilution of phospho-CHK rabbit monoclonal antibody (Ser 345) (133D3) acquired from Cell Signaling (Beverly, Mass.). […] To further characterize the CHK1 activation, SW620 and HT29 cells were treated with gemcitabine (100 nM) or SN38 (100 nM) and cells harvested at different times (from 30 minutes to 24 hours). […] A panel of tumor cell lines was then examined to determine how broadly in tumor cells CHK was activated and whether p53 status impacted CHK activation. The panel of cell lines were plated and treated for 8 hours with 100 nM of gemcitabine. Cell lysates were harvested and evaluated for phospho-CHK upregulation.

phospho-CHK [2] = assay: Western blot of phospho-CHK in a panel of tumor cell lines; format: cell-based; conditions: 100 nM, 8 hours
Procedure: Cell were then treated with a titration of DNA damaging agents (SN-38 (CQ International, China), doxorubicin (Sigma-Aldrich, MO) or gemcitabine (CQ International, China)). […] Protein lysates were then generated, protein concentration determined and equal protein loaded and analyzed by Western blot analysis using a 1:100 dilution of phospho-CHK rabbit monoclonal antibody ([MUT]) (133D3) acquired from Cell Signaling (Beverly, Mass.). […] A panel of tumor cell lines was then examined to determine how broadly in tumor cells CHK was activated and whether p53 status impacted CHK activation. The panel of cell lines were plated and treated for 8 hours with 100 nM of gemcitabine. Cell lysates were harvested and evaluated for phospho-CHK upregulation.

phospho-CHK [3] = assay: Western blot of phospho-CHK in H460 (dominant negative p53) xenograft tumors; format: in vivo, nude rats; conditions: 20 mg/kg IV
Procedure: 1×10^7 H460 cells expressing dominant negative p53 were injected into the right flank of male nude rats which had been irradiated with 5 Gy radiation 6 days prior to implantation. At day 20 when the tumors reached a size of […], animals were dosed IV with 20 mg/kg gemcitabine in 0.9% saline. Tumors were then harvested at varying time points including 1.5, 2, 2.5, 4, 6, 8 and 24 hours following gemcitabine dosing.

phosphorylated CHK1 = assay: Phosphorylated CHK1 staining (H-score) of hair follicles in skin biopsies; format: in vivo, nude mice; conditions: gemcitabine 30 or 60 mg/kg IV alone or Chk inhibitor 5, 20 or 40 mg/kg IV alone, seven hours
Text: Staining was specific to cell nuclei. […] Sections were then quantitated by H-score analysis.

phospho-CHK [4] = assay: Phospho-CHK immunohistochemistry (IHC) in HeLa or A549 cells, Metamorph quantitation; format: cell-based; conditions: 100 nM gemcitabine, 5 hours, FIG. 1
Procedure: Phospho-CHK regulation was also examined by immunohistochemistry (IHC). […] Cells were fixed with 4% PFA in PBS (8 minutes room temperature), permeabilized with 0.5% Triton-X in PBS, washed with PBS and washed with 0.05% Tween 20 in PBS. Cells were then blocked with 10% Goat serum for 1 hour at room temperature, incubated with 1:50 dilution of phospho-CHK rabbit monoclonal antibody ([MUT]) (133D3) acquired from Cell Signaling (Beverly, Mass.) in 10% goat serum for 90 minutes, washed twice with PBS and once with 05% Tween 20 in PBS. […] Phospho-CHK staining was then quantitated using Metamorph analysis (Universal Imaging Corp, Dowington, Pa.).

phospho-H2AX = assay: Western blot of phospho-H2AX in SW620 and or A549 cells; format: cell-based; conditions: 5 hour incubation, either compound used alone
Procedure: Cells were then harvested after a 5 hour incubation directly into SDS sample buffer (NuPAGE #NP007). Samples were then sonicated, passed through a 21 gauge needle, heated to 100° C. for 5 minutes, microcentrifuged and analyzed by Western blot analysis. Protein lysates were then generated, protein concentration determined and equal protein loaded and analyzed by Western blot analysis using a 1:5000 dilution of a mouse monoclonal anti-phospho H2AX […] (Upstate, N.Y.).

phospho-CHK [5] = assay: Western blot of phospho-CHK in SW620 cells, gemcitabine and CHK inhibitor combination; format: cell-based; conditions: 8 hours, 100 nM gemcitabine alone or 30, 100 or 500 nM CHK inhibitor alone
Procedure: Cell were then treated with 100 nM gemcitabine or 30 nM, 100 nM or 500 nM CHK inhibitor or a combination of 100 nM gemcitabine and 30 nM, 100 nM or 500 nM for 8 hours. One set of cells were then harvested for Western blot analysis. Media containing compounds were removed from the remaining cells and fresh tissue culture media added back.

SMILES	phospho-CHK level by Western blot (phospho-CHK [1])	phospho-CHK level by Western blot (phospho-CHK [2])	time of maximum activation of CHK in tumor (phospho-CHK [3]) [h]	time to activation of CHK in tumor (phospho-CHK [3]) [h]	phospho-CHK in tumor at 24 hours (phospho-CHK [3]; 24 hours after dosing)	phosphorylated CHK1 staining of hair follicles, single agent (phosphorylated CHK1)	area of phospho-CHK signal relative to nuclear area (phospho-CHK [4])	phospho-H2AX by Western blot, compound alone (phospho-H2AX)	phospho-CHK level by Western blot, single agent (phospho-CHK [5])
CCc1c2c(nc3ccc(O)cc13)-c1cc3c(c(=O)n1C2)COC(=O)[C@]3(O)CC [SN-38]	dose dependent up-regulation								
COc1cccc2c1C(=O)c1c(O)c3c(c(O)c1C2=O)C[C@@](O)(C(=O)CO)C[C@@H]3O[C@H]1C[C@H](N)[C@H](O)[C@H](C)O1 [doxorubicin]	dose dependent up-regulation								
Nc1ccn([C@@H]2O[C@H](CO)[C@@H](O)C2(F)F)c(=O)n1 [gemcitabine]	dose dependent up-regulation	upregulated in a panel of tumor cell lines, albeit to different levels	8	≤ 2	significantly down-regulated	No staining	large increase	no change or a very modest change	increase in phospho-CHK
